ChEMBL document CHEMBL1909046, “DrugMatrix in vitro pharmacology data”

Legend:
[1] = DRUGMATRIX: Tumor Necrosis Factor (TNF), Non-Selective radioligand binding (ligand: [125I] TNF-alpha); assay type: cell membranes, Membrane; conditions: u-937; Not Active = under 50% inhibition at 10 µM
Cytochrome P450 2E1 = Cytochrome P450 2E1 (Homo sapiens, UniProt P05181); conditions: bti-tn-5b1-4; also: in other assays of this panel Not Active means under 50% inhibition at 10 µM
Acetylcholinesterase = Acetylcholinesterase (Homo sapiens, UniProt P22303); experiment: DRUGMATRIX: Acetylcholinesterase enzyme inhibition (substrate: acetylthiocholine); assay type: cell-based, HEK293; conditions: hek293; Not Active = under 50% inhibition at 10 µM
Sequence of Acetylcholinesterase (P22303 whole entry): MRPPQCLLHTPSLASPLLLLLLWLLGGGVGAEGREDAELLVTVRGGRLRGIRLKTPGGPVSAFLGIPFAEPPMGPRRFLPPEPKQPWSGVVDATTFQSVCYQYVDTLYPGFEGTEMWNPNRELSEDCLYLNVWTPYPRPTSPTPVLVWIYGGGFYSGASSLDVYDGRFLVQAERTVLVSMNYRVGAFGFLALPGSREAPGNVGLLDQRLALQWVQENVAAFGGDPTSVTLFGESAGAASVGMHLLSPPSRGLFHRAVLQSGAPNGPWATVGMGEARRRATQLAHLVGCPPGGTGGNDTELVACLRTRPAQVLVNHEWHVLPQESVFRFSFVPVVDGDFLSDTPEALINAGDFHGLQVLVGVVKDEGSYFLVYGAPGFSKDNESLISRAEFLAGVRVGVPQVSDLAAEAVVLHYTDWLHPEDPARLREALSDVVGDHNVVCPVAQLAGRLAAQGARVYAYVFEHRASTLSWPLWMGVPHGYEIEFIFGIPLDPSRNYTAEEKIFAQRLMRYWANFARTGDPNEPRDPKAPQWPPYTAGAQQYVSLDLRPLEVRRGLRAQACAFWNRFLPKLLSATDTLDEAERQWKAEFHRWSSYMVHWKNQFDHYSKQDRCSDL

[2] = molecular target: Epidermal growth factor receptor (Homo sapiens, UniProt P00533); experiment: DRUGMATRIX: Protein Tyrosine Kinase, EGF Receptor enzyme inhibition (substrate: Poly(Glu:Tyr)); assay type: cell-based, Insect cells; conditions: insect cells; Not Active = under 50% inhibition at 10 µM
Sequence of Epidermal growth factor receptor (P00533 whole entry): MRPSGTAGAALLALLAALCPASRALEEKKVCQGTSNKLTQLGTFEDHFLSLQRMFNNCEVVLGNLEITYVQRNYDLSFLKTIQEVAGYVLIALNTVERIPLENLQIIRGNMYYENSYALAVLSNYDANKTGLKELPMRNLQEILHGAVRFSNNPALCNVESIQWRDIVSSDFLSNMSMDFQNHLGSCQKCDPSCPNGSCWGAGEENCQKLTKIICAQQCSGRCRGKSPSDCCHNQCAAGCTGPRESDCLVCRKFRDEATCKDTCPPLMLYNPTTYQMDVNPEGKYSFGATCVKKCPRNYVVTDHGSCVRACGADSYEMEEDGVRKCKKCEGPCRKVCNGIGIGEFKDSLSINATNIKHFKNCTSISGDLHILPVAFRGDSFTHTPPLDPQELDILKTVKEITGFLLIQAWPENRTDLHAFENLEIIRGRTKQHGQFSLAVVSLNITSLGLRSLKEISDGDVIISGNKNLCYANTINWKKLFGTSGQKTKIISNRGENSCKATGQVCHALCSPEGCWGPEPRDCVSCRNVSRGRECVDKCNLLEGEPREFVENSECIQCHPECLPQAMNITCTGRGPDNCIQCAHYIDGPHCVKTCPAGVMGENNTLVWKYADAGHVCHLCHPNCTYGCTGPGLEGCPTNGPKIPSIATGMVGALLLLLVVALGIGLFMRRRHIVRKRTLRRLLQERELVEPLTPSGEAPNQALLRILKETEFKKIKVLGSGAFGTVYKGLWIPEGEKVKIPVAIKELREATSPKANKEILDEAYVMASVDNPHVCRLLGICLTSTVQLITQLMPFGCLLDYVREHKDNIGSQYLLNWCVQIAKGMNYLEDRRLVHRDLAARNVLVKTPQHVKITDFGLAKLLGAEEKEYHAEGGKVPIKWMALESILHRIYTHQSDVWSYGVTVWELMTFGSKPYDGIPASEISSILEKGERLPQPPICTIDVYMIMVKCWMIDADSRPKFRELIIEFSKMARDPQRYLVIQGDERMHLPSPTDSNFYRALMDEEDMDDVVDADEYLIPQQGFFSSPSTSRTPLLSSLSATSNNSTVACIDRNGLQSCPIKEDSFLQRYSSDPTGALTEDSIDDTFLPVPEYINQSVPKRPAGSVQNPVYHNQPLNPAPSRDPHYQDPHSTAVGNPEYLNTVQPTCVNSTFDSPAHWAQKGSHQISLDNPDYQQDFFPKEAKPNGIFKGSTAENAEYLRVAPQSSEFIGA

[3] = DRUGMATRIX: Calcium Channel Type L, Benzothiazepine radioligand binding (ligand: [3H] Diltiazem); assay type: cell membranes, Rattus norvegicus, Wistar, Brain, Membrane; conditions: Not Active = under 50% inhibition at 10 µM
[4] = molecular target: T1, Muscarinic acetylcholine receptor M5 (Homo sapiens, UniProt P08912); assay type: cell membranes, CHO-K1, Membrane; conditions: cho-k1; also: in other assays of this panel Not Active means under 50% inhibition at 10 µM
T1 sequence (P08912 whole entry): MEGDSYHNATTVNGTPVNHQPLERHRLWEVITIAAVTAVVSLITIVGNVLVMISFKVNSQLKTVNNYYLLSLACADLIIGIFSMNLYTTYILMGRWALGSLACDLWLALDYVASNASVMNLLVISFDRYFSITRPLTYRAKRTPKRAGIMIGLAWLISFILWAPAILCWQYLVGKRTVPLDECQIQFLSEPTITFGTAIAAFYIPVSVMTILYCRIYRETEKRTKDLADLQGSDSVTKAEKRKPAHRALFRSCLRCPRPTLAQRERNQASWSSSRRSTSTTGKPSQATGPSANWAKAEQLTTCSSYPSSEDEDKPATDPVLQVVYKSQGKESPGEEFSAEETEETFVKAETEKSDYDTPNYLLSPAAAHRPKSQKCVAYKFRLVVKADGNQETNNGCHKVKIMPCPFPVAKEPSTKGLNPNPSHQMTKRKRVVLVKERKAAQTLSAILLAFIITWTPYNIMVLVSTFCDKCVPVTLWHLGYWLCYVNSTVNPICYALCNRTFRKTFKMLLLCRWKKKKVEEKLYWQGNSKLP

Sequence of Cytochrome P450 2E1 (P05181 whole entry): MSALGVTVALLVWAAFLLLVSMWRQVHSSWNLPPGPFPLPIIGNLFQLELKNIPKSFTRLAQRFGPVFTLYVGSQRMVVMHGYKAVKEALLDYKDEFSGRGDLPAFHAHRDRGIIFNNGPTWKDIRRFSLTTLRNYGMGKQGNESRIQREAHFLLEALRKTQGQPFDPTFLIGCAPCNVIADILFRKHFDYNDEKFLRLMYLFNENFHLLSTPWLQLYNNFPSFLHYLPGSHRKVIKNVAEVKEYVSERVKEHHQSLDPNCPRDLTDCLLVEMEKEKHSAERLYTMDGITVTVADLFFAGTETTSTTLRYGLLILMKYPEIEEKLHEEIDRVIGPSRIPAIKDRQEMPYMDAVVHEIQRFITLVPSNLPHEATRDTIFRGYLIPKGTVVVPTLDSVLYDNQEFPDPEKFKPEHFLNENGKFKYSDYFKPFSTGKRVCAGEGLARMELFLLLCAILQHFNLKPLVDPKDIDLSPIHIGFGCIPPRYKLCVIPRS

CN1C(=O)COc2c(C(=O)NC3CN4CCC3CC4)cc(Cl)cc21 (stereo not given) [AZASETRON]
Not Active: IC50 [1] | Ki [1] | IC50 (Cytochrome P450 2E1) | Ki (Cytochrome P450 2E1) | IC50 (Acetylcholinesterase) | IC50 [2] | IC50 [3] | Ki [3] | IC50 [4]

C[C@H]1C[C@H]2[C@@H]3CCC4=CC(=O)C=C[C@]4(C)[C@@]3(Cl)[C@@H](O)C[C@]2(C)[C@@]1(O)C(=O)CO [BECLOMETHASONE]
Not Active: IC50 [1] | Ki [1] | IC50 (Cytochrome P450 2E1) | Ki (Cytochrome P450 2E1) | IC50 (Acetylcholinesterase) | IC50 [2] | IC50 [3] | Ki [3] | IC50 [4]

CCOC(=O)[C@H](CCc1ccccc1)N[C@H]1CCc2ccccc2N(CC(=O)O)C1=O [BENAZEPRIL]
Not Active: IC50 [1] | Ki [1] | IC50 (Cytochrome P450 2E1) | Ki (Cytochrome P450 2E1) | IC50 (Acetylcholinesterase) | IC50 [2] | IC50 [3] | Ki [3] | IC50 [4]

Nc1c(CC(=O)O)cccc1C(=O)c1ccc(Br)cc1 [BROMFENAC]
Not Active: IC50 [1] | Ki [1] | IC50 (Cytochrome P450 2E1) | Ki (Cytochrome P450 2E1) | IC50 (Acetylcholinesterase) | IC50 [2] | IC50 [3] | Ki [3] | IC50 [4]

CCCCN1CCCCC1C(=O)Nc1c(C)cccc1C.Cl (stereo not given) [BUPIVACAINE HYDROCHLORIDE]
Not Active: IC50 [1] | Ki [1] | IC50 (Cytochrome P450 2E1) | Ki (Cytochrome P450 2E1) | IC50 (Acetylcholinesterase) | IC50 [2] | IC50 [3] | Ki [3] | IC50 [4]

O=C1CC2(CCCC2)CC(=O)N1CCCCN1CCN(c2ncccn2)CC1 [BUSPIRONE]
Not Active: IC50 [1] | Ki [1] | IC50 (Cytochrome P450 2E1) | Ki (Cytochrome P450 2E1) | IC50 (Acetylcholinesterase) | IC50 [2] | IC50 [3] | Ki [3] | IC50 [4]

C[C@@]12C(=O)OC(=O)[C@]1(C)[C@H]1CC[C@@H]2O1 [CANTHARIDIN]
Not Active: IC50 [1] | Ki [1] | IC50 (Cytochrome P450 2E1) | Ki (Cytochrome P450 2E1) | IC50 (Acetylcholinesterase) | IC50 [2] | IC50 [3] | Ki [3] | IC50 [4]

CC1=C(C(=O)O)N2C(=O)[C@@H](NC(=O)[C@H](N)c3ccccc3)[C@H]2SC1 [CEPHALEXIN ANHYDROUS]
Not Active: IC50 [1] | Ki [1] | IC50 (Cytochrome P450 2E1) | Ki (Cytochrome P450 2E1) | IC50 (Acetylcholinesterase) | IC50 [2] | IC50 [3] | Ki [3] | IC50 [4]

ClC(Cl)Cl [CHLOROFORM]
Not Active: IC50 [1] | Ki [1] | IC50 (Cytochrome P450 2E1) | Ki (Cytochrome P450 2E1) | IC50 (Acetylcholinesterase) | IC50 [2] | IC50 [3] | Ki [3] | IC50 [4]

C=C1CC[C@H](O)C/C1=C/C=C1\CCC[C@]2(C)[C@@H]([C@H](C)CCCC(C)C)CC[C@@H]12 [CHOLECALCIFEROL]
Not Active: IC50 [1] | Ki [1] | IC50 (Cytochrome P450 2E1) | Ki (Cytochrome P450 2E1) | IC50 (Acetylcholinesterase) | IC50 [2] | IC50 [3] | Ki [3] | IC50 [4]

C[N+](C)(C)CCO.[Cl-] [CHOLINE CHLORIDE]
Not Active: IC50 [1] | Ki [1] | IC50 (Cytochrome P450 2E1) | Ki (Cytochrome P450 2E1) | IC50 (Acetylcholinesterase) | IC50 [2] | IC50 [3] | Ki [3] | IC50 [4]

CCOC(=O)C(C)(C)Oc1ccc(Cl)cc1 [CLOFIBRATE]
Not Active: IC50 [1] | Ki [1] | IC50 (Cytochrome P450 2E1) | Ki (Cytochrome P450 2E1) | IC50 (Acetylcholinesterase) | IC50 [2] | IC50 [3] | Ki [3] | IC50 [4]

CC(=O)OCC(=O)[C@@]1(O)CC[C@H]2[C@@H]3CCC4=CC(=O)CC[C@]4(C)[C@H]3C(=O)C[C@@]21C [CORTISONE ACETATE]
Not Active: IC50 [1] | Ki [1] | IC50 (Cytochrome P450 2E1) | Ki (Cytochrome P450 2E1) | IC50 (Acetylcholinesterase) | IC50 [2] | IC50 [3] | Ki [3] | IC50 [4]

O=c1ccc2ccccc2o1 [COUMARIN]
Not Active: IC50 [1] | Ki [1] | IC50 (Cytochrome P450 2E1) | Ki (Cytochrome P450 2E1) | IC50 (Acetylcholinesterase) | IC50 [2] | IC50 [3] | Ki [3] | IC50 [4]

CN(C)/N=N/c1[nH]cnc1C(N)=O [DACARBAZINE]
Not Active: IC50 [1] | Ki [1] | IC50 (Cytochrome P450 2E1) | Ki (Cytochrome P450 2E1) | IC50 (Acetylcholinesterase) | IC50 [2] | IC50 [3] | Ki [3] | IC50 [4]

COc1ccc2c(c1)[C@]13CCCC[C@@H]1[C@H](C2)N(C)CC3 [DEXTROMETHORPHAN]
Not Active: IC50 [1] | Ki [1] | IC50 (Cytochrome P450 2E1) | Ki (Cytochrome P450 2E1) | IC50 (Acetylcholinesterase) | IC50 [2] | IC50 [3] | Ki [3] | IC50 [4]

CC(=O)Nc1c(I)c(NC(C)=O)c(I)c(C(=O)O)c1I [DIATRIZOIC ACID]
Not Active: IC50 [1] | Ki [1] | IC50 (Cytochrome P450 2E1) | Ki (Cytochrome P450 2E1) | IC50 (Acetylcholinesterase) | IC50 [2] | IC50 [3] | Ki [3] | IC50 [4]

COP(=O)(OC)OC=C(Cl)Cl [DICHLORVOS]
Not Active: IC50 [1] | Ki [1] | IC50 (Cytochrome P450 2E1) | Ki (Cytochrome P450 2E1) | IC50 (Acetylcholinesterase) | IC50 [2] | IC50 [3] | Ki [3] | IC50 [4]

O=C(O)Cc1ccccc1Nc1c(Cl)cccc1Cl [DICLOFENAC]
Not Active: IC50 [1] | Ki [1] | IC50 (Cytochrome P450 2E1) | Ki (Cytochrome P450 2E1) | IC50 (Acetylcholinesterase) | IC50 [2] | IC50 [3] | Ki [3] | IC50 [4]

C[C@H]1O[C@@H](O[C@H]2[C@@H](O)C[C@H](O[C@H]3[C@@H](O)C[C@H](O[C@H]4CC[C@@]5(C)[C@H](CC[C@@H]6[C@@H]5CC[C@]5(C)[C@@H](C7=CC(=O)OC7)CC[C@]65O)C4)O[C@@H]3C)O[C@@H]2C)C[C@H](O)[C@@H]1O [DIGITOXIN]
Not Active: IC50 [1] | Ki [1] | IC50 (Cytochrome P450 2E1) | Ki (Cytochrome P450 2E1) | IC50 (Acetylcholinesterase) | IC50 [2] | IC50 [3] | Ki [3] | IC50 [4]
